# Assay results: patent publication US20230119479A1, “A HISTONE DEACETYLASE INHIBITOR HAVING A NITROGEN-CONTAINING AROMATIC HETEROCYCLYL GROUP” (SHIONOGI & CO., LTD., priority 2019, published 2023)
# Molecular target: T1, HDAC2 Human recombinant C-terminal FLAG-tag (Homo sapiens, UniProt Q92769)
# T1 construct: FLAG (C); purchased BPS Bioscience 50052
# Test: Measurement of HDAC2 enzyme inhibitory activity (HTRF)
# Format: biochemical
# Settings: recombinant HDAC2, H3K9ac peptide, 3 hours room temperature; read-out: HDAC2 IC50
# Description: Test Example 1: Measurement of HDAC2 Enzyme Inhibitory Activity
# The HDAC2 enzyme inhibitory activity was measured by the method described in the following test example.
# To each well of a 384-well plate (Corning, 4514), DMSO solution of the test compound was dispensed at 50 nL/well from a final concentration of 99 μM to 8 points (n=2) in the 3-fold dilution series using Echo555 (Beckman Coulter). 2.5 μl of 0.005 mg/mL recombinant enzyme HDAC2 (HDAC2 Human recombinant C-terminal FLAG-tag, BPS Bioscience, 50052) was added to each well, 2.5 μl of 0.6 μM H3K9ac peptide (Lys(Ac)9-Histone H3 (1-21)-GGK(Biotin), AnaSpec, 64361) was added, mixed, and reacted in a wet box at room temperature for 3 hours. 50 mM Tris HCL pH8.0, 137 mM sodium chloride, 2.7 mM potassium chloride, 1 mM magnesium chloride, 0.01% Tween20, and 0.1% BSA which were diluted with ultrapure water were used as a reaction buffer at this time. After the reaction, 5 μL of 10 μM SAHA (suberoylanilide hydroxamic acid) as a reaction terminator and the 5 μL of a mixture of 2.5 ng of H3K9me0 antibody (ActiveMotif, 61399) labeled in-house with europium cryptate (Cisbio, 65EUSABA) and 125 nM streptavidin-XL665 (Cisbio, 610SAXLA) as an HTRF (time-resolved fluorescence) reagent were added to each well, mixed, and allowed to stand in a wet box at room temperature for reaction. A detection buffer used at this time was 50 mM Tris HCL pH 8.0, 0.8 M potassium fluoride, and 0.1% BSA which were diluted with ultrapure water. After reacting for 2 hours or more, HTRF was measured using a multi-plate reader such as SpectraMax Paradigm (MOLECULAR DEVICE) or RUBYstar (BMG LABTECH). Ratio (665 nm/615-620 nm×10000) was calculated from the fluorescence values of two wavelengths, 615-620 nm and 665 nm, which were excited at 320-340 nm, and the energy transition was obtained.
# T1 sequence (Q92769 whole entry): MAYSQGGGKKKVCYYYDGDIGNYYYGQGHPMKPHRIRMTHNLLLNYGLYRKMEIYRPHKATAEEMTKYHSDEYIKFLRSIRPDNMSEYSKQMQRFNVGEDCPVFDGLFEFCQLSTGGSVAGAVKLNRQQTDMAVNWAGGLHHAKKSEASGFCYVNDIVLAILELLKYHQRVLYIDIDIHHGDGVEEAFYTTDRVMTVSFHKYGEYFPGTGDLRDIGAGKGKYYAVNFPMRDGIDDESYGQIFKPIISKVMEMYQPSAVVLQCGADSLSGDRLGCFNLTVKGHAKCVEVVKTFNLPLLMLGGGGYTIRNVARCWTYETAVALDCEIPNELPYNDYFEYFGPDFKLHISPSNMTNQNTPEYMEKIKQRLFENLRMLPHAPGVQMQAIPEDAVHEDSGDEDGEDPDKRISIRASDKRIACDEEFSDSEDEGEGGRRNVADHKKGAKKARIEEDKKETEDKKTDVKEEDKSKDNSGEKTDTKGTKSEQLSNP
row,IC50 [nM],SMILES
1,70,Nc1ccc(-c2ccc(F)nc2)cc1NC(=O)c1cnc(N2CCC23COC3)cn1 [Compound I-236]
2,160,CCN(C)c1cnc(C(=O)Nc2cc(-c3cnn(C)c3)ccc2N)cn1 [Compound I-237]
3,150,Cn1cc(-c2ccc(N)c(NC(=O)c3cnc(N4CCC4)cn3)c2)cn1 [Compound I-238]
4,230,Nc1ccc(-c2ccc(F)nc2)cc1NC(=O)c1cnc(Cl)cn1 [Compound I-239]
5,80,Nc1ccc(-c2ccc(F)nc2)cc1NC(=O)c1cnc(N2CCCC2)cn1 [Compound I-240]
6,140,Cn1cc(-c2ccc(N)c(NC(=O)c3cnc(N4CCCC4)cn3)c2)cn1 [Compound I-241]
7,40,CC(C)Nc1cnc(C(=O)Nc2cc(-c3ccc(F)nc3)ccc2N)cn1 [Compound I-242]
8,260,Nc1ccc(-c2ccc(F)nc2)cc1NC(=O)c1ccc(C2CCC2)cn1 [Compound I-243]
9,470,CC(=O)N(C)c1cnc(C(=O)Nc2cc(-c3cnn(C)c3)ccc2N)cn1 [Compound I-244]
10,70,Nc1ccc(-c2ccc(F)nc2)cc1NC(=O)c1cnc(N2CC3(COC3)C2)cn1 [Compound I-245]
11,110,Nc1ccc(-c2ccc(F)nc2)cc1NC(=O)c1ccc(C2COC2)cn1 [Compound I-246]
12,380,CN(C)c1cnc(C(=O)Nc2nc(-c3ccc(F)nc3)ccc2N)cn1 [Compound I-247]
13,220,CC(=O)N(C)c1cnc(C(=O)Nc2cc(-c3ccc(F)nc3)ccc2N)cn1 [Compound I-248]
14,70,CCc1cnc(C(=O)Nc2cc(-c3ccc(F)nc3)ccc2N)cn1 [Compound I-249]
15,110,CC(C)c1cnc(C(=O)Nc2cc(-c3ccc(F)nc3)ccc2N)cn1 [Compound I-251]
16,170,CC(C)c1cnc(C(=O)Nc2cc(-c3cnn(C)c3)ccc2N)cn1 [Compound I-252]
17,150,COc1ccc(C(=O)Nc2cc(-c3ccc(F)nc3)ccc2N)nn1 [Compound I-253]
18,410,Cn1cc(-c2ccc(N)c(NC(=O)c3cc4c(cn3)OCCC4)c2)cn1 [Compound I-255]
19,260,Cc1ccc(C(=O)Nc2cc(-c3ccc(F)nc3)ccc2N)nn1 [Compound I-256]
20,570,Cc1ccc(C(=O)Nc2cc(-c3cnn(C)c3)ccc2N)nn1 [Compound I-257]
21,870,COc1cnc(C(=O)Nc2cc(-c3cnn(C)c3)ccc2N)nc1 [Compound I-258]
22,340,COc1cnc(C(=O)Nc2cc(-c3ccc(F)nc3)ccc2N)nc1 [Compound I-259]

row,IC50 [nM],SMILES
1,470,CCc1cnc(C(=O)Nc2nc(-c3ccccc3)ccc2N)cn1 [Compound I-260]
2,260,CCc1cnc(C(=O)Nc2nc(-n3cccc3)ccc2N)cn1 [Compound I-261]
3,100,Nc1ccc(-c2ccc(F)nc2)cc1NC(=O)c1ccc(N2CCOCC2)nn1 [Compound I-262]
4,120,CN(C)c1ccc(C(=O)Nc2cc(-c3ccc(F)nc3)ccc2N)nn1 [Compound I-263]
5,270,Nc1ccc(-c2ccc(F)nc2)cc1NC(=O)c1ccc(Cl)nn1 [Compound I-264]
6,90,CC(=O)Nc1ccc(C(=O)Nc2cc(-c3cnn(C)c3)ccc2N)nc1 [Compound I-265]
7,140,Nc1ccc(-c2ccc(F)nc2)cc1NC(=O)c1ccc(N2CCC2)nn1 [Compound I-266]
8,100,Nc1ccc(-n2ccc(F)c2)cc1NC(=O)c1cnc(N2CCOCC2)cn1 [Compound I-267]
9,130,CCOc1ccc(C(=O)Nc2cc(-c3ccc(F)nc3)ccc2N)nn1 [Compound I-268]
10,180,CCOc1ccc(C(=O)Nc2cc(-c3cnn(C)c3)ccc2N)nn1 [Compound I-269]
11,970,Cn1cc(-c2ccc(N)c(NC(=O)c3ccc(Cl)nn3)c2)cn1 [Compound I-270]
12,90,Nc1ccc(-c2ccc(F)nc2)cc1NC(=O)c1ccc(N2CCCC2)nn1 [Compound I-271]
13,230,Cn1cc(-c2ccc(N)c(NC(=O)c3ccc(N4CCCC4)nn3)c2)cn1 [Compound I-272]
14,230,CC(C)Nc1ccc(C(=O)Nc2cc(-c3ccc(F)nc3)ccc2N)nn1 [Compound I-273]
15,240,CN(C)c1ccc(C(=O)Nc2cc(-c3cnn(C)c3)ccc2N)nn1 [Compound I-274]
16,260,Cn1cc(-c2ccc(N)c(NC(=O)c3ccc(N4CCOCC4)nn3)c2)cn1 [Compound I-275]
17,40,CN(Cc1ccccn1)c1cnc(C(=O)Nc2cc(-c3ccc(F)nc3)ccc2N)cn1 [Compound I-276]
18,40,Nc1ccc(-c2ccc(F)nc2)cc1NC(=O)c1cnc(NCc2ccccn2)cn1 [Compound I-277]
19,50,Nc1ccc(-c2ccc(F)nc2)cc1NC(=O)c1cnc(N2CCCOCC2)cn1 [Compound I-278]
20,50,Nc1ccc(-c2ccc(F)nc2)cc1NC(=O)c1cnc(N2Cc3cccnc3C2)cn1 [Compound I-279]
21,230,CC(=O)Nc1ccc(C(=O)Nc2nc(-c3ccccc3)ccc2N)nc1 [Compound I-281]
22,50,Nc1ccc(-c2ccc(F)nc2)cc1NC(=O)c1cnc(N2CC(O)C2)cn1 [Compound I-282]

row,IC50 [nM],SMILES
1,50,COC1CN(c2cnc(C(=O)Nc3cc(-c4ccc(F)nc4)ccc3N)cn2)C1 [Compound I-283]
2,80,CC(C)(O)C1CN(c2cnc(C(=O)Nc3cc(-c4ccc(F)nc4)ccc3N)cn2)C1 [Compound I-284]
3,40,CCNc1cnc(C(=O)Nc2cc(-c3ccc(F)nc3)ccc2N)cn1 [Compound I-285]
4,70,Nc1ccc(-c2ccc(F)nc2)cc1NC(=O)c1cnc(NC2CCOCC2)cn1 [Compound I-286]
5,170,Nc1ccc(-c2ccc(F)nc2)cc1NC(=O)c1cnc(OC2CCOCC2)cn1 [Compound I-287]
6,230,Nc1ccc(-c2ccc(F)nc2)cc1NC(=O)c1cnc(NCC(F)(F)F)cn1 [Compound I-288]
7,200,CC(C)Oc1ccc(C(=O)Nc2cc(-c3ccc(F)nc3)ccc2N)nn1 [Compound I-289]
8,110,Cn1cc(-c2ccc(N)c(NC(=O)c3cnc(NC4CCOCC4)cn3)c2)cn1 [Compound I-290]
9,310,Cn1cc(-c2ccc(N)c(NC(=O)c3cnc(OC4CCOCC4)cn3)c2)cn1 [Compound I-291]
10,170,Cn1cc(-c2ccc(N)c(NC(=O)c3cnc(NCC(F)(F)F)cn3)c2)cn1 [Compound I-292]
11,340,CC(C)Oc1ccc(C(=O)Nc2cc(-c3cnn(C)c3)ccc2N)nn1 [Compound I-293]
12,70,Cn1cc(-c2ccc(N)c(NC(=O)c3cnc(NCc4ccccn4)cn3)c2)cn1 [Compound I-294]
13,80,CN(Cc1ccccn1)c1cnc(C(=O)Nc2cc(-c3cnn(C)c3)ccc2N)cn1 [Compound I-295]
14,70,Cn1cc(-c2ccc(N)c(NC(=O)c3cnc(N4CCCOCC4)cn3)c2)cn1 [Compound I-296]
15,100,Cn1cc(-c2ccc(N)c(NC(=O)c3cnc(N4Cc5cccnc5C4)cn3)c2)cn1 [Compound I-297]
16,130,Nc1ccc(-n2ccc(F)c2)cc1NC(=O)c1cnc(N2CCCOCC2)cn1 [Compound I-298]
17,120,CN(C)c1cnc(C(=O)Nc2cc(-n3ccc(F)c3)ccc2N)cn1 [Compound I-299]
18,70,Nc1ccc(-n2ccc(F)c2)cc1NC(=O)c1cnc(N2CCC2)cn1 [Compound I-300]
19,310,CC(C)Nc1cnc(C(=O)Nc2cc(-n3ccc(F)c3)ccc2N)cn1 [Compound I-301]
20,80,Nc1ccc(-n2ccc(F)c2)cc1NC(=O)c1cnc(NCc2ccccn2)cn1 [Compound I-302]
21,70,Nc1ccc(-c2ccc(F)nc2)cc1NC(=O)c1cnc(N2CCOCC2)cn1 [Compound I-303]

# Same assay, conditions: recombinant HDAC2, H3K9ac peptide; read-out: IC50 (HDAC2)
row,IC50 [nM],SMILES
1,70,CCNc1cnc(C(=O)Nc2cc(-c3cnn(C)c3)ccc2N)cn1 [Compound I-304]
2,130,CC(=O)Nc1ccc(C(=O)Nc2nc(-n3cccc3)ccc2N)nc1 [Compound I-305]
3,48,CCC(=O)Nc1ccc(C(=O)Nc2cc(-c3ccc(F)nc3)ccc2N)nc1 [Compound I-306]
4,77,CCC(=O)Nc1ccc(C(=O)Nc2cc(-c3cnn(C)c3)ccc2N)nc1 [Compound I-307]
5,280,CCC(=O)Nc1ccc(C(=O)Nc2nc(-c3ccccc3)ccc2N)nc1 [Compound I-308]
6,120,CC(=O)Nc1cnc(C(=O)Nc2cc(-c3cnn(C)c3)ccc2N)cn1 [Compound I-309]
7,92,CC(=O)Nc1cnc(C(=O)Nc2cc(-c3ccc(F)nc3)ccc2N)cn1 [Compound I-310]
8,150,CS(=O)(=O)Nc1cnc(C(=O)Nc2cc(-c3ccc(F)nc3)ccc2N)cn1 [Compound I-311]
